Reference: paper PMC9966338, “Inhibitory Potential of α-Amylase, α-Glucosidase, and Pancreatic Lipase by a Formulation of Five Plant Extracts: TOTUM-63” (International Journal of Molecular Sciences, 2023)
Like-named read-outs stand apart in the source and are kept apart here.

Experiments:
α-amylase = test system: α-amylase; design: method as in PMID 30050443; conditions: based on IC50 values; cited from earlier work
[1] = target: T1, α-Glucosidase (maltase from Saccharomyces cerevisiae) (Saccharomyces cerevisiae, UniProt P53341); experiment: α-Glucosidase inhibition kinetics (Lineweaver–Burk, SigmaPlot fit); type: biochemical
T1 construct: purchased Merck/Sigma-Aldrich
T1 sequence (P53341 whole entry): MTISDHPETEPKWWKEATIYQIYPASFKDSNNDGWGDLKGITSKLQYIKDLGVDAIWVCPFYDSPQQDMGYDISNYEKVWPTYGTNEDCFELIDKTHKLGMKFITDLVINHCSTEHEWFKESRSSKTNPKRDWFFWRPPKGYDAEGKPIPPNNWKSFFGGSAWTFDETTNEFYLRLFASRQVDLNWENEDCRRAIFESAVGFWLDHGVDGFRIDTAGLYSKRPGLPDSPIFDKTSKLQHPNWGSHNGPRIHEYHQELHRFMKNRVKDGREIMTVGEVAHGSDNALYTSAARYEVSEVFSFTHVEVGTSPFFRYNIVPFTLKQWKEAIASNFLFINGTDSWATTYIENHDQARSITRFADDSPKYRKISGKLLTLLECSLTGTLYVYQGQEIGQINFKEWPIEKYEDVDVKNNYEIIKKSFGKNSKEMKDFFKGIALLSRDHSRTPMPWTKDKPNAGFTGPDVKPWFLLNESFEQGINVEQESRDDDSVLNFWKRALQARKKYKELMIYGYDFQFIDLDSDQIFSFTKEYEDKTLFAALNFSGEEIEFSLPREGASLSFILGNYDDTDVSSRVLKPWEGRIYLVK
Procedure: α-glucosidase inhibition kinetics was investigated in vitro using the method described in Section 4.2.1. Inhibition models were determined by analysis of the Lineweaver–Burk plots using four concentrations of substrate and four concentrations of test products (including a “0”, without inhibitor). All initial rates were fitted to all enzymatic kinetic models with one substrate and one inhibitor provided by the Enzyme Kinetics Module of Sigma Plot 12 (Systat Software Inc., San Jose, CA, USA), using non-linear least-square regression models to determine the inhibition model and calculate the inhibitory constant (Ki).
Equations (2) and (3) (below) were used for data analysis and corresponded to the inhibition models that best fitted our data according to the SigmaPlot software 12 (Systat Software Inc., San Jose, CA, USA) [73]. […] Ki’ corresponds to the second inhibitor dissociation constant because, in a mixed model, the constants for E + I ↔ EI and ES + I ↔ ESI are different. Factor α, given by SigmaPlot (Systat Software Inc., San Jose, CA, USA), represents the equilibrium between Ki’ and Ki. (2) v =Vmax/1+(Km/[S])×(1+[I]/Ki) (3) v =Vmax/(1+[I]/Ki^’)+Km/[S]×(1+[I]/Ki)

α-glucosidase [2] = target: T2, α-glucosidase (Saccharomyces cerevisiae, UniProt P53341); experiment: Interactions with α-glucosidase by fluorescence spectrum changes; type: binding; conditions: excitation 285 nm, emission 320–440 nm
T2 construct: purchased Merck/Sigma-Aldrich
T2 sequence (P53341 whole entry): as above
Procedure: Potassium phosphate buffer (0.1 M, pH 6.8) was used as the reaction buffer. The final α-glucosidase concentration in the wells was 1.275 mg/mL. For each microplate well, 20 µL of test product in a 50:50 (v:v) water:ethanol mixture (or 20 µL of this solvent mixture for the controls without products), 100 µL of α-glucosidase in buffer (or 100 µL of buffer for the blanks), and 40 µL of buffer were incubated at 25 °C in a microplate reader for 5 min. Then, fluorescence was measured at an excitation of 285 nm and an emission scan ranging from 320 nm to 440 nm.

α-glucosidase [3] = conditions: cited from earlier work
[4] = target: T1, α-Glucosidase (maltase from Saccharomyces cerevisiae); experiment: biochemical; type: biochemical
From the text: Chrysanthellin B was purchased from Extrasynthese (Genay, France). 2-(N-morpholino)-ethanesulfonic acid (MES) buffer was purchased from ThermoFisher Scientific (Waltham, Massachusetts, USA). NaN3 was obtained from Carlo Erba Reagents (Val-de-Reuil, France). Pure water was obtained using an Evoqua ultra-pure water production system (Water Technologies, Günzburg, Germany). The RED-NHS protein labeling kit was from NanoTemper Technologies (Munich, Germany).
α-Glucosidase hydrolytic activity was assessed by monitoring the conversion of p-nitrophenyl-α-D-glucopyranoside (PNPg) into p-nitrophenol (PNP). PNP levels were quantified at 405 nm. […] A series of PNP dilutions in buffer was used to generate the standard curve to convert PNP absorbance values into concentrations. The final α-glucosidase concentration corresponded to an activity of 30 µM of PNP/min for negative control without inhibitor. In each microplate well, 20 µL of test products diluted in a 50:50 (v:v) water:ethanol mixture (or 20 µL of this solvent mixture for the negative controls), 20 µL of α-glucosidase in buffer (or 20 µL of buffer for the blanks), and 100 µL of buffer were incubated in a microplate reader at 37 °C for 10 min. Then, 20 µL of PNPg substrate (2.5 mM in buffer) was added to each well to initiate the reaction. A FLUO Star Omega (BMG LabTech, Champigny sur Marne, France) 96-well microplate reader, thermostatically controlled at 37 °C, was used to measure the absorbance at 405 nm, every minute for 30 min. […] (1) % Relative activity=Residual activity/Negative control activity×100

lipase = test system: lipase; design: method as in PMID 36105167; conditions: based on IC50 values; cited from earlier work

**Q.** For `O=C(/C=C/c1ccc(O)c(O)c1)O[C@@H]1C[C@](OC(=O)/C=C/c2ccc(O)c(O)c2)(C(=O)O)C[C@@H](O)[C@H]1O` [1,5-dicaffeoylquinic acid], which “inhibitory activity on α-amylase, times higher than acarbose” value (“inhibitory activity on α-amylase” for short) (α-amylase) is on record?
**A.** 6.2 times

**Q.** For `O=C(/C=C/c1ccc(O)c(O)c1)O[C@@H]1[C@H](O)C[C@@](O)(C(=O)O)C[C@H]1OC(=O)/C=C/c1ccc(O)c(O)c1` [3,4-dicaffeoylquinic acid], which “inhibitory activity on α-amylase” value (α-amylase) is on record?
**A.** 7.2 times

**Q.** With `O=C(/C=C/c1ccc(O)c(O)c1)O[C@@H]1CC(O)(C(=O)O)C[C@@H](OC(=O)/C=C/c2ccc(O)c(O)c2)C1O` (stereo partly drawn) [3,5-dicaffeoylquinic acid] as the compound, how does the “inhibitory activity on α-amylase” value (α-amylase) read?
**A.** 9.4 times

**Q.** Which “inhibitory activity on α-amylase” value (α-amylase) does the source give for `O=C(/C=C/c1ccc(O)c(O)c1)O[C@H]1[C@H](O)C[C@](O)(C(=O)O)C[C@H]1OC(=O)/C=C/c1ccc(O)c(O)c1` [4,5-dicaffeoylquinic acid] here?
**A.** 11.4 times

**Q.** For `C[C@H]1O[C@H](O[C@H]2[C@H](O)[C@@H](O)[C@@H](O[C@H]3[C@H](O)[C@@H](O)C(O)O[C@@H]3CO)O[C@@H]2CO)[C@H](O)[C@@H](O)[C@@H]1N[C@H]1C=C(CO)[C@@H](O)[C@H](O)[C@H]1O` (stereo partly drawn) [Acarbose, acarbose], which Inhibition type ([1]; best-fitting model) is on record?
**A.** Competitive (full)

**Q.** And the Vmax ([1]; α-glucosidase in the presence of the inhibitor)?
**A.** 0.00182 mM/min

**Q.** And the “α-glucosidase fluorescence intensity with increasing concentrations” value (α-glucosidase [2])?
**A.** less obvious effect

**Q.** For `O=C(/C=C/c1ccc(O)c(O)c1)O[C@@H]1C[C@](O)(C(=O)O)C[C@@H](O)[C@H]1O` [Chlorogenic acid], which α-glucosidase inhibition mechanism (α-glucosidase [3]) is on record?
**A.** mixed

**Q.** With `CC1OC(OC2C(O)COC(OC3C(C)OC(OC4C(OC(=O)C56CCC(C)(C)CC5C5=CCC7C8(C)CCC(OC9OC(CO)C(O)C(O)C9O)C(C)(CO)C8CCC7(C)C5(C)CC6O)OCC(O)C4O)C(O)C3O)C2O)C(O)C(O)C1O` (stereo not drawn) [Chrysanthellin B] as the compound, how does the “inhibitory effect on α-glucosidase relative to acarbose” value [4] read?
**A.** five times lower

**Q.** What about the IC50 ([4]; PNPg substrate, pH 6.8, 37 °C, read-out: IC50 α-Glucosidase (converted)) of the same compound?
**A.** 127 µM

**Q.** Which IC50 [4] does the source give for `O=c1cc(-c2ccc(O)c(O)c2)oc2cc(O)cc(O)c12` [Luteolin] here?
**A.** 1.4 µM

**Q.** What about the α-glucosidase inhibition mechanism (α-glucosidase [3]) of the same compound?
**A.** non-competitive

**Q.** For `CC1(C)CC[C@]2(C(=O)O)CC[C@]3(C)C(=CC[C@@H]4[C@@]5(C)CC[C@H](O)C(C)(C)[C@@H]5CC[C@]43C)[C@@H]2C1` [Oleanolic acid], which “inhibitory activity on α-glucosidase, times higher than acarbose” value (α-glucosidase [3]) is on record?
**A.** 162 times

**Q.** Which IC50 [4] does the source give for `C/C=C1/[C@H](O[C@@H]2O[C@H](CO)[C@@H](O)[C@H](O)[C@H]2O)OC=C(C(=O)OC)[C@H]1CC(=O)OCCc1ccc(O)c(O)c1` [Oleuropein] here?
**A.** 5.74 µM

**Q.** With `O=C(/C=C/C=C/c1ccc2c(c1)OCO2)N1CCCCC1` [Piperine] as the compound, how does the α-glucosidase inhibition mechanism (α-glucosidase [3]) read?
**A.** mixed

**Q.** Which “inhibitory activity on α-amylase” value (α-amylase) does the source give for `O=C(/C=C/c1ccc(O)c(O)c1)O[C@@H]1C[C@@](OC(=O)/C=C/c2ccc(O)c(O)c2)(C(=O)O)C[C@@H](O)[C@@H]1O` [cynarin] here?
**A.** 4.8 times

**Q.** Which “lipase inhibitory activity relative to orlistat” value (lipase) does the source give for `O=C1C[C@@H](c2ccc(O)c(O)c2)Oc2cc(O)cc(O)c21` [eriodictyol] here?
**A.** more than two times higher

**Q.** For `O=c1cc(-c2ccc(O)c(O)c2)oc2cc(O[C@@H]3O[C@H](CO)[C@@H](O)[C@H](O)[C@H]3O)cc(O)c12` [luteolin-7-O-glucoside], which “lipase inhibitory activity relative to orlistat” value (lipase) is on record?
**A.** more than two times higher
